The results in this text go back to patent publication US9981930B1, “MAGL inhibitors” (ABIDE THERAPEUTICS, INC., priority 2016, dated 2018).

Molecules are shown by their SMILES.

Assay [1] has as its target T1, MAGL Human (Homo sapiens, UniProt Q99685).
T1 construct: Proteomes (human prefrontal cortex or cell membrane fractions); from tissue; host or cells: human prefrontal cortex or cell membrane fractions
T1 sequence (Q99685 1-303): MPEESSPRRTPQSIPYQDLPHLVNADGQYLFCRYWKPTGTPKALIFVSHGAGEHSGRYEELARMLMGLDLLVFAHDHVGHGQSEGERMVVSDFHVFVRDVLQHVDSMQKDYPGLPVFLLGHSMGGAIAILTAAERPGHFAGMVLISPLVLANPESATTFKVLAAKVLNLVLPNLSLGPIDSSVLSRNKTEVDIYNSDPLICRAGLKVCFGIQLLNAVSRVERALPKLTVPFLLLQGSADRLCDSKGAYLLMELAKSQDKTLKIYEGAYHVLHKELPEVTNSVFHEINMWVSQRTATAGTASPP
The experiment in a line: In vitro competitive activity-based protein profiling (human). It counts as biochemical. As to conditions: human prefrontal cortex or cell membrane fractions; 30 min preincubation at 37° C.; FP-Rh or JW912 probe. The protocol: In Vitro Competitive Activity-Based Protein Profiling (Human).
Proteomes (human prefrontal cortex or cell membrane fractions) (50 μL, 1.0-2.0 mg/mL total protein concentration) were preincubated with varying concentrations of inhibitors at 37° C. After 30 min, FP-Rh or JW912 (1.0 μL, 50 μM in DMSO) was added and the mixture was incubated for another 30 min at room temperature. Reactions were quenched with SDS loading buffer (15 μL-4×) and run on SDS-PAGE. Following gel imaging, serine hydrolase activity was determined by measuring fluorescent intensity of gel bands corresponding to MAGL using ImageJ 1.49k software.

The target in assay [2] is T2, MAGL (Mus musculus, UniProt O35678).
T2 construct: from tissue; host or cells: brain of wild-type C57Bl/6J mice
T2 sequence (O35678 1-303): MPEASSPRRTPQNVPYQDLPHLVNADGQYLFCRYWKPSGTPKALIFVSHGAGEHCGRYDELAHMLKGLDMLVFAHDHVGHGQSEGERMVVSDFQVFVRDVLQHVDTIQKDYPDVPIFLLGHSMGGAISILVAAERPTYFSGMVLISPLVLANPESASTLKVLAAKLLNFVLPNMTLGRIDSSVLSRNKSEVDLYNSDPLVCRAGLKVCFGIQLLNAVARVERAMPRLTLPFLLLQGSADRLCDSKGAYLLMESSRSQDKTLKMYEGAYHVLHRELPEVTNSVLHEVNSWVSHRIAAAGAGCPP
Description: Mouse brain proteomes from inhibitor treated mice (ex vivo activity-based protein profiling after oral gavage). It counts as in vivo. Conditions: 5 mg/kg oral gavage, C57Bl/6J mice, brain proteomes 4 h following administration. On the procedure: Proteomes (mouse brain membrane fraction or cell lysates) (50 μL, 1.0 mg/mL total protein concentration) were preincubated with varying concentrations of inhibitors at 37° C. After 30 min, FP-Rh (1.0 μL, 50 μM in DMSO) was added and the mixture was incubated for another 30 min at 37° C. Reactions were quenched with SDS loading buffer (50 μL-4×) and run on SDS-PAGE. Following gel imaging, serine hydrolase activity was determined by measuring fluorescent intensity of gel bands corresponding to MAGL using ImageJ 1.49k software.
Preparation of Mouse Brain Proteomes from Inhibitor Treated Mice.

In general, IC50 refers to the concentration that inhibits the measured activity by half. A low value points to greater potency. One may read the inhibition as the relative decrease from the control value, in per cent. High values mean a response far below the control, low ones a response near the control. Consider `O=C(O)CCCNc1cc(C(F)(F)F)ccc1CN1CCN(C(=O)OC(C(F)(F)F)C(F)(F)F)CC1` [Example 1, 4-((2-((4-(((1,1,1,3,3,3-Hexafluoropropan-2-yl)oxy)carbonyl)piperazin-1-yl)methyl)-5-(trifluoromethyl)phenyl)amino)butanoic acid], for which the IC50 in assay [1] was < 100 nM. The inhibition at 5 mg/kg in assay [2] is > 75%.
As for `O=C(O)CNc1cc(C(F)(F)F)ccc1CN1CCN(C(=O)OC(C(F)(F)F)C(F)(F)F)CC1` [Example 6, (2-((4-(((1,1,1,3,3,3-Hexafluoropropan-2-yl)oxy)carbonyl)piperazin-1-yl)methyl)-5-(trifluoromethyl)phenyl)glycine], in assay [1], the IC50 was < 100 nM.
`O=C(O)CCCNc1cc(Cl)ccc1CN1CCN(C(=O)OC(C(F)(F)F)C(F)(F)F)CC1` [Example 2, 4-((5-Chloro-2-((4-(((1,1,1,3,3,3-hexafluoropropan-2-yl)oxy)carbonyl)piperazin-1-yl)methyl)phenyl)amino)butanoic acid]: in assay [1], the IC50 is < 100 nM. For the same compound, the inhibition at 5 mg/kg in assay [2] is 25 to 75%.
`O=C(O)CCNc1cc(C(F)(F)F)ccc1CN1CCN(C(=O)OC(C(F)(F)F)C(F)(F)F)CC1` [Example 4, 3-((2-((4-(((1,1,1,3,3,3-Hexafluoropropan-2-yl)oxy)carbonyl)piperazin-1-yl)methyl)-5-(trifluoromethyl)phenyl)amino)propanoic acid]: the IC50 in assay [1] was < 100 nM. For the same compound, the inhibition at 5 mg/kg in assay [2] was > 75%.
For `C[C@H](Nc1cc(C(F)(F)F)ccc1CN1CCN(C(=O)OC(C(F)(F)F)C(F)(F)F)CC1)C(=O)O` [Example 7, (2-((4-(((1,1,1,3,3,3-hexafluoropropan-2-yl)oxy)carbonyl)piperazin-1-yl)methyl)-5-(trifluoromethyl)phenyl)-L-alanine] the same measures were < 100 nM and 25 to 75%.
Consider `O=C(O)CCNc1cc(Cl)ccc1CN1CCN(C(=O)OC(C(F)(F)F)C(F)(F)F)CC1` [Example 5, 3-((5-Chloro-2-((4-(((1,1,1,3,3,3-hexafluoropropan-2-yl)oxy)carbonyl)piperazin-1-yl)methyl)phenyl)amino)propanoic acid], for which the IC50 in assay [1] is < 100 nM.
For the compound `O=C(O)CNc1cc(Cl)ccc1CN1CCN(C(=O)OC(C(F)(F)F)C(F)(F)F)CC1` [Example 3, (5-Chloro-2-((4-(((1,1,1,3,3,3-hexafluoropropan-2-yl)oxy)carbonyl)piperazin-1-yl)methyl)phenyl)glycine], the IC50 in assay [1] was < 100 nM. This compound also showed an inhibition at 5 mg/kg in assay [2] of 25 to 75%.
